Assays:
[1] = system: pancreatic cancer stem cells; test: percent survival of pancreatic cancer stem cells; format: cell-based, human; conditions: varying concentrations; FIG. 9
From the text: FIG. 9 depicts treatment of pancreatic cancer with compounds I-9, I-10; I-3; I-11. FIG. 9 depicts the % survival of pancreatic cancer stem cells at varying concentrations of I-9; I-10; I-3; I-11.
(§1) The present example describes methods used for testing the efficacy of compounds described herein. The selective growth of stem cells of cancers, of their precursor lesions, and of normal and chronically diseased epithelial tissues is described in the references below. In brief, biopsied tissues are reduced to single cell suspensions and plated onto lawns of irradiated 3T3-J2 feeder cells in specialized StemEcho media and libraries of colonies are evident in 7-10 days. Single cell-derived clones are generated by single cell FACS sorting to 384 well plates and wells with individual colonies are expanded, analyzed by molecular genetics, and grown as discrete clones.
(§2) Approximately 400,000 cells from discrete clones relevant to particular disease states (cancer, chronic inflammatory disease) are plated into 384 plates previously seeded with irradiated feeder cells, allowed to grow for 5 days, and then exposed to the test compounds in a serial dilution format. After 2-5 days, the cells are fixed using paraformaldehyde and the human cells are labelled with human-specific antibodies followed by fluorochrome-labelled secondary antibodies. Human cell numbers are quantified via high-throughput imaging technology (CellInsight CX7 LED, Thermo), and data analyzed by Excel.

[2] = system: advanced Barrett's esophagus stem cells; test: percent survival of advanced Barrett's esophagus stem cells; format: cell-based, human
From the text: FIG. 4 depicts treatment of advanced Barrett's esophagus stem cells with compound I-1 in cells isolated from two different patients. FIG. 4A depicts the % survival of Barrett's esophagus stem cells from a first patient at higher concentration of compound I-1. FIG. 4B depicts the % survival of Barrett's esophagus cells from a first patient at lower concentration of compound I-1. FIG. 4C depicts the % survival of Barrett's esophagus cells from a second patient at higher concentration of compound I-1. FIG. 4D depicts the % survival of Barrett's esophagus stem cells from a second patient at lower concentration of compound I-1.
FIG. 7 depicts treatment of various diseases with compounds I-2 and I-5. FIG. 7A depicts % survival of diffused gastric adenocarcinoma with ascites cells with varying concentrations of compounds I-2 and I-5. FIG. 7B depicts % survival of advanced Barret's cells with varying concentrations of compounds I-2 and I-5. FIG. 7C depicts % survival of high-grade serous ovarian cancer cells with varying concentrations of compounds I-2 and I-5. […]
The present example describes methods used for testing the efficacy of compounds described herein. […] Single cell-derived clones are generated by single cell FACS sorting to 384 well plates and wells with individual colonies are expanded, analyzed by molecular genetics, and grown as discrete clones. […]

[3] = system: lung adenocarcinoma stem cells; test: percent survival of lung adenocarcinoma stem cells; format: cell-based, human; conditions: FIG. 3A, 3B
Description: FIG. 3 depicts treatment of lung adenocarcinoma stem cells with compound I-1. FIG. 3A depicts the % survival of lung adenocarcinoma stem cells at higher concentration of compound I-1. FIG. 3B depicts the % survival of lung adenocarcinoma stem cells at lower concentration of compound I-1.
Specifically, lung adenocarcinoma stem cells from an additional individual were tested and treated at higher (nM) or low (pM) concentrations of I-1 (FIG. 3A and FIG. 3B).
as §1, with “In brief, biopsied tissues are reduced to single cell suspensions and plated onto lawns of irradiated 3T3-J2 feeder cells in specialized StemEcho media and libraries of colonies are evident in 7-10 days.” left out
as §2, with “After 2-5 days, the cells are fixed using paraformaldehyde and the human cells are labelled with human-specific antibodies followed by fluorochrome-labelled secondary antibodies.” left out

[4] = system: Barrett's esophagus cells; test: percent survival of Barrett's esophagus cells; format: cell-based, human; conditions: FIG. 1; for sensitivity of Barrett's esophagus cells compared to the other compounds of Table 1: versus other IAP inhibitors of Table 1
Description: FIG. 1 depicts treatment of Barrett's esophagus cells with compounds described herein. The concentration of the compound used and percent survival of the cells is provided.
Cells isolated from individuals diagnosed with or suffering from Barrett's esophagus were treated with the indicated compounds.
as §1, §2

[5] = system: esophageal adenocarcinoma stem cells; test: percent survival of esophageal adenocarcinoma stem cells; format: cell-based, human; conditions: FIG. 2; versus other IAP inhibitors of Table 1
From the text: FIG. 2 depicts treatment of esophageal adenocarcinoma stem cells with compounds described herein. The concentration of the compound used and percent survival of the cells is provided.
FIG. 6 depicts treatment of Barrett's low grade dysplasia and esophageal adenocarcinoma with compound I-1. FIG. 6A depicts the % survival of Barrett's low grade dysplasia stem cells at higher concentration of compound I-1. FIG. 6B depicts the % survival of Barrett's low grade dysplasia stem cells at lower concentration of compound I-1. FIG. 6C depicts the % survival of esophageal adenocarcinoma stem cells at higher concentration of compound I-1. […]
(§3) The present example describes methods used for testing the efficacy of compounds described herein. […] Single cell-derived clones are generated by single cell FACS sorting to 384 well plates and wells with individual colonies are expanded, analyzed by molecular genetics, and grown as discrete clones.
as §2, with “After 2-5 days, the cells are fixed using paraformaldehyde and the human cells are labelled with human-specific antibodies followed by fluorochrome-labelled secondary antibodies.” left out

[6] = system: Barrett's high grade dysplasia stem cells; test: percent survival of Barrett's high grade dysplasia stem cells; format: cell-based, human; conditions: FIG. 5A, 5B
From the text: FIG. 5 depicts treatment of Barrett's high grade dysplasia and diffuse gastric cancer with compound I-1. FIG. 5A depicts the % survival of Barrett's high grade dysplasia stem cells at higher concentration of compound I-1. FIG. 5B depicts the % survival of Barrett's high grade dysplasia stem cells at lower concentration of compound I-1. FIG. 5C depicts the % survival of diffuse gastric cancer stem cells at higher concentration of compound I-1. FIG. 5D depicts the % survival of diffuse gastric cancer stem cells at lower concentration of compound I-1.
(§4) FIG. 8 depicts treatment of Barrett's low grade dysplasia and high grade dysplasia with compounds I-1; I-2; I-6; and I-3. […]
as §3
as §2, with “After 2-5 days, the cells are fixed using paraformaldehyde and the human cells are labelled with human-specific antibodies followed by fluorochrome-labelled secondary antibodies.” left out

[7] = system: Barrett's low grade dysplasia stem cells; test: percent survival of Barrett's low grade dysplasia stem cells; format: cell-based, human; conditions: FIG. 6A, 6B
From the text: FIG. 6 depicts treatment of Barrett's low grade dysplasia and esophageal adenocarcinoma with compound I-1. FIG. 6A depicts the % survival of Barrett's low grade dysplasia stem cells at higher concentration of compound I-1. FIG. 6B depicts the % survival of Barrett's low grade dysplasia stem cells at lower concentration of compound I-1. FIG. 6C depicts the % survival of esophageal adenocarcinoma stem cells at higher concentration of compound I-1. FIG. 6D depicts the % survival of esophageal adenocarcinoma cells at lower concentration of compound I-1.
as §4, §3
as §2, with “After 2-5 days, the cells are fixed using paraformaldehyde and the human cells are labelled with human-specific antibodies followed by fluorochrome-labelled secondary antibodies.” left out

cIAP1 = conditions: inhibits cIAP1; cited from earlier work
[8] = system: gastric cancer stem cells; test: percent survival of (diffuse) gastric cancer stem cells; format: cell-based, human; conditions: two individuals with diffuse gastric cancer; FIG. 7A, 7D
From the text: FIG. 7 depicts treatment of various diseases with compounds I-2 and I-5. FIG. 7A depicts % survival of diffused gastric adenocarcinoma with ascites cells with varying concentrations of compounds I-2 and I-5. FIG. 7B depicts % survival of advanced Barret's cells with varying concentrations of compounds I-2 and I-5. FIG. 7C depicts % survival of high-grade serous ovarian cancer cells with varying concentrations of compounds I-2 and I-5. FIG. 7D depicts % survival of gastric cancer with varying concentrations of compounds I-2 and I-5. FIG. 7E depicts % survival taxol resistant ovarian cancer stem cells with varying concentrations of compounds I-2 and I-5. […]
as §3
as §2, with “After 2-5 days, the cells are fixed using paraformaldehyde and the human cells are labelled with human-specific antibodies followed by fluorochrome-labelled secondary antibodies.” left out

Structure (SMILES): CN[C@@H](C)C(=O)N[C@H](C(=O)N1CCC[C@H]1C(=O)N[C@H]1c2ccccc2C[C@H]1OCCCCNc1c(NCCCCO[C@@H]2Cc3ccccc3[C@@H]2NC(=O)[C@@H]2CCCN2C(=O)[C@@H](NC(=O)[C@H](C)NC)C2CCCCC2)c(=O)c1=O)C1CCCCC1 [I-10]
- sensitivity of pancreatic cancer stem cells [1]: sensitive

Structure (SMILES): CN[C@@H](C)C(=O)N[C@H](C(=O)N1CCC[C@H]1C(=O)N[C@H]1c2ccccc2C[C@H]1OCCOCCNc1c(NCCOCCO[C@@H]2Cc3ccccc3[C@@H]2NC(=O)[C@@H]2CCCN2C(=O)[C@@H](NC(=O)[C@H](C)NC)C2CCCCC2)c(=O)c1=O)C1CCCCC1 [I-1]
- sensitivity of advanced Barrett's esophagus stem cells ([2]; two individuals, higher (nM) or low (pM) concentrations, FIG. 4A-4D): demonstrates the sensitivity
- sensitivity of lung adenocarcinoma stem cells ([3]; higher (nM) or low (pM) concentrations): demonstrate the sensitivity
- lethality compared with another highly potent cytotoxic treatment ([3]; higher and lower concentration): comparable lethality to another highly potent cytotoxic treatment
- sensitivity of Barrett's esophagus cells [4]: particularly sensitive
- sensitivity of Barrett's esophagus cells compared to the other compounds of Table 1 [4]: significantly more sensitive
- sensitivity of esophageal adenocarcinoma stem cells compared to the other compounds of Table 1 [5]: significantly more sensitive
- sensitivity of Barrett's high grade dysplasia stem cells [6]: sensitive
- sensitivity of Barrett's low grade dysplasia stem cells [7]: sensitive

Structure (SMILES): CN[C@@H](C)C(=O)N[C@H](C(=O)N1CCC[C@H]1c1nc(C(=O)c2ccc(F)cc2)cs1)C1CCCCC1 [LCL 161]
- IC50 (cIAP1): 0.4 nM

Structure (SMILES): CN[C@@H](C)C(=O)N[C@H](C(=O)N1CCC[C@H]1C(=O)N[C@H]1c2ccccc2C[C@H]1OCCCNc1c(NCCCO[C@@H]2Cc3ccccc3[C@@H]2NC(=O)[C@@H]2CCCN2C(=O)[C@@H](NC(=O)[C@H](C)NC)C2CCCCC2)c(=O)c1=O)C1CCCCC1 [I-9]
- sensitivity of pancreatic cancer stem cells [1]: sensitive

Structure (SMILES): CN[C@@H](C)C(=O)N[C@H](C(=O)N1CCC[C@H]1C(=O)N[C@H]1c2ccccc2C[C@H]1OCCNc1c(NCCO[C@@H]2Cc3ccccc3[C@@H]2NC(=O)[C@@H]2CCCN2C(=O)[C@@H](NC(=O)[C@H](C)NC)C2CCCCC2)c(=O)c1=O)C1CCCCC1 [I-2]
- sensitivity of advanced Barrett's esophagus stem cells ([2]; additional individual, varying concentrations, FIG. 7B): notably sensitive
- sensitivity of Barrett's esophagus cells [4]: particularly sensitive
- sensitivity of Barrett's esophagus cells compared to the other compounds of Table 1 [4]: significantly more sensitive
- sensitivity of esophageal adenocarcinoma stem cells compared to the other compounds of Table 1 [5]: significantly more sensitive
- sensitivity of gastric cancer stem cells [8]: sensitive

Structure (SMILES): CN[C@@H](C)C(=O)N[C@H](C(=O)N1CCC[C@H]1C(=O)N[C@H]1c2ccccc2C[C@H]1OCCCCCNc1c(NCCCCCO[C@@H]2Cc3ccccc3[C@@H]2NC(=O)[C@@H]2CCCN2C(=O)[C@@H](NC(=O)[C@H](C)NC)C2CCCCC2)c(=O)c1=O)C1CCCCC1 [I-3]
- sensitivity of pancreatic cancer stem cells [1]: sensitive

Structure (SMILES): CN[C@@H](C)C(=O)N[C@H](C(=O)N1CCC[C@H]1C(=O)N[C@H]1c2ccccc2C[C@H]1OCCCCCCNc1c(NCCCCCCO[C@@H]2Cc3ccccc3[C@@H]2NC(=O)[C@@H]2CCCN2C(=O)[C@@H](NC(=O)[C@H](C)NC)C2CCCCC2)c(=O)c1=O)C1CCCCC1 [I-11]
- sensitivity of pancreatic cancer stem cells [1]: sensitive
